Test results published in the supplement of paper PMC10307832.

How the values were obtained:
Assay in all cases: relative viability (nuclei count vs DMSO), 5 days (fraction); higher = more cells survive
[1] = compound: COC1=C(C=C(C=C1)C2=CC3=NC=CN3C(=N2)NC4=C(C=CC=N4)C(=O)N)OC [BAY61-3606] + O=C(c1cc(Cc2n[nH]c(=O)c3ccccc23)ccc1F)N1CCN(C(=O)C2CC2)CC1 [Olaparib] (partner 8 µM)
Outline: (§1)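 Lung cancer cell lines were pin-tool dosed in 1536-well plates on the day after seeding, with either a lone drug or a fixed anchor-drug dose plus five library-drug doses (not always all listed) in √10 steps. Nuclei were counted on 4× images after 5 days. Relative viability is the ratio of treated-well to vehicle-well nuclei counts, with each value a median of duplicate plates.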

[2] = compound: COc1cccc2c1C(=O)c1c(O)c3c(c(O)c1C2=O)C[C@@](O)(C(=O)CO)C[C@@H]3O[C@H]1C[C@H](N)[C@H](O)[C@H](C)O1 [Doxorubicin] + C[C@]1(O)C[C@@H](c2nc(-c3ccc4ccc(-c5ccccc5)nc4c3)c3c(N)nccn32)C1 [Linsitinib] (partner 1 µM)
Outline: as §1

[3] = compound: COc1cccc2c1C(=O)c1c(O)c3c(c(O)c1C2=O)C[C@@](O)(C(=O)CO)C[C@@H]3O[C@H]1C[C@H](N)[C@H](O)[C@H](C)O1 [Doxorubicin] + CC(C)C[C@H](NC(=O)[C@H](Cc1ccccc1)NC(=O)c1cnccn1)B(O)O [Bortezomib] (partner 0.002 µM)
Outline: as §1

[4] = compound: COC1=C(C=C(C=C1)C2=CC3=NC=CN3C(=N2)NC4=C(C=CC=N4)C(=O)N)OC [BAY61-3606] + Cc1nc(NC(=O)N2CCC[C@H]2C(N)=O)sc1-c1ccnc(C(C)(C)C(F)(F)F)c1 [Alpelisib] (partner 2 µM)
Outline: as §1

Row | Cell Line | relative viability ([1]; first compound 0.02 µM) | relative viability ([1]; first compound 0.06325 µM) | relative viability ([1]; first compound 0.2 µM) | relative viability ([1]; first compound 0.6325 µM) | relative viability ([1]; first compound 2 µM) | relative viability ([2]; first compound 0.001 µM) | relative viability ([2]; first compound 0.003162 µM) | relative viability ([2]; first compound 0.01 µM) | relative viability ([2]; first compound 0.03162 µM) | relative viability ([2]; first compound 0.1 µM) | relative viability ([3]; first compound 0.001 µM) | relative viability ([3]; first compound 0.003162 µM) | relative viability ([3]; first compound 0.01 µM) | relative viability ([3]; first compound 0.03162 µM) | relative viability ([3]; first compound 0.1 µM) | relative viability ([4]; first compound 0.02 µM) | relative viability ([4]; first compound 0.06325 µM) | relative viability ([4]; first compound 0.2 µM) | relative viability ([4]; first compound 0.6325 µM) | relative viability ([4]; first compound 2 µM)
1 | COR-L23 | 0.343 | 0.356 | 0.411 | 0.353 | 0.269 | 0.881 | 1.08 | 0.908 | 0.331 | 0.18 | 1.04 | 0.996 | 0.872 | 0.447 | 0.156 | 0.868 | 0.764 | 0.753 | 0.78 | 0.486
2 | ABC-1 | 0.908 | 0.686 | 0.76 | 0.494 | 0.711 | 0.787 | 0.727 | 0.805 | 0.435 | 0.337 | 0.304 | 0.324 | 0.364 | 0.273 | 0.251 | 1.06 | 1.14 | 1.15 | 0.968 | 1.06
3 | NCI-H522 | 0.768 | 0.618 | 0.644 | 0.654 | 0.53 | – | – | – | – | – | – | – | – | – | – | – | – | – | – | –
4 | SW 1573 | 0.553 | 0.455 | 0.424 | 0.542 | 0.259 | 0.669 | 0.831 | 0.858 | 0.586 | 0.529 | 0.98 | 1.1 | 0.817 | 0.466 | 0.339 | 0.838 | 0.679 | 0.88 | 0.822 | 0.451
5 | SW 900 | 0.881 | – | – | 0.856 | 0.573 | – | – | – | – | – | – | – | – | – | – | – | – | – | – | –
6 | A549 | 0.332 | 0.377 | 0.217 | 0.312 | 0.336 | – | 0.609 | 0.502 | 0.52 | 0.646 | – | – | – | – | – | 0.81 | 0.658 | 0.846 | 0.718 | 0.573
7 | A-427 | 0.79 | 0.694 | 0.765 | 0.777 | 0.715 | 1.11 | 1.15 | 1.11 | 1.17 | 1.16 | 1.03 | 1.06 | 0.966 | 0.942 | 0.991 | 1.11 | 1.13 | 1.1 | 1.07 | 1.06
8 | NCI-H1915 | 0.253 | 0.236 | 0.254 | 0.247 | 0.181 | 1.14 | 1.03 | 1.08 | 1.05 | 1.1 | 0.994 | 0.943 | 0.927 | 0.94 | 1 | 1.07 | 1.08 | 1.06 | 1.03 | 0.93
9 | LOU-NH91 | 0.944 | 0.922 | 0.903 | 0.944 | 0.728 | – | 0.826 | 0.953 | 0.73 | 0.7 | 0.493 | 0.477 | 0.479 | 0.487 | 0.407 | 0.764 | 0.643 | 0.73 | 0.798 | 0.541
10 | NCI-H1734 | 0.604 | 0.555 | 0.561 | 0.541 | 0.378 | 0.945 | 0.922 | 0.826 | 0.731 | 0.871 | 0.867 | 1.09 | 0.89 | 0.588 | 0.429 | 0.706 | 0.615 | 0.653 | 0.654 | 0.413
11 | LCLC-97TM1 | 0.498 | 0.365 | 0.462 | 0.336 | 0.389 | 0.205 | 0.185 | 0.177 | 0.151 | 0.159 | 0.528 | 0.434 | 0.265 | 0.151 | 0.0908 | 0.232 | – | 0.244 | 0.231 | 0.238
12 | HCC-366 | 0.406 | 0.436 | 0.365 | 0.324 | 0.235 | – | 0.392 | 0.706 | 0.52 | 0.512 | – | 1.06 | 1.05 | 0.326 | 0.0968 | 0.449 | 0.343 | 0.369 | 0.388 | 0.212
13 | BEN | 1.2 | 0.865 | 1.16 | 1.29 | 0.972 | 0.984 | 0.863 | 0.983 | 0.621 | 0.79 | 1.01 | 1.05 | 0.821 | 0.632 | 0.74 | 1.23 | 0.831 | 1.24 | 1.24 | 0.958
14 | ChaGo-K-1 | 0.442 | 0.452 | 0.368 | 0.392 | 0.357 | – | – | – | – | – | 1.16 | 0.832 | 0.948 | 0.47 | 0.319 | – | – | – | – | –
15 | SK-MES-1 | 0.679 | 0.786 | 0.606 | 0.688 | 0.31 | 0.952 | 1.07 | 1.07 | 1.05 | 0.936 | – | – | – | – | – | 1.02 | 0.968 | 1 | 0.986 | 0.7
16 | NCI-H2170 | 0.59 | 0.62 | 0.571 | 0.626 | 0.435 | – | – | – | – | – | – | – | – | – | – | 0.775 | 0.869 | 0.801 | 0.857 | 0.512
17 | NCI-H1648 | 0.766 | 0.982 | 0.736 | – | 0.765 | – | – | – | – | – | – | – | – | – | – | – | – | – | – | –
18 | NCI-H2342 | 0.352 | 0.406 | 0.399 | 0.495 | 0.432 | – | – | – | – | – | – | – | – | – | – | – | – | – | – | –
19 | NCI-H1793 | 0.988 | 0.814 | 1 | 1.03 | 0.718 | – | 0.813 | 0.848 | 0.579 | 0.911 | – | – | – | – | – | 0.817 | 0.782 | 0.64 | 0.882 | 0.839
20 | NCI-H358 | 0.654 | 0.601 | 0.751 | 0.573 | 0.449 | 0.756 | 0.896 | 0.529 | 0.215 | 0.176 | – | – | – | – | – | 0.996 | 0.753 | 0.732 | 0.643 | 0.228
21 | NCI-H1944 | 0.439 | 0.38 | 0.397 | 0.434 | 0.258 | 1.17 | 1.23 | 1.34 | 1.16 | 1.3 | – | – | – | – | – | 0.911 | 0.867 | 0.842 | 0.703 | 0.505
